Test results taken from US7435716B2, “Compounds pharmaceutical compositions and methods for treatment of bacteremia and/or septicemia” (Ramot At Tel Aviv University Ltd., priority 2001, dated 2008).
Read-outs that look alike come from different tables or passages of the source.

Experiments:
[1] = test system: phagocytosis of E. coli by human monocytes-derived macrophages; test: Phagocytosis activity assay; type: cell-based
Method: The conjugates and the control peptides were incubated with E. coli (10^6 CFU/mL) prior to the contact with human monocytes-derived macrophages monolayer. After 30 minutes of phagocyte-bacteria encounter, the phagocytes were washed, lysed and the released bacteria allowed to grow for 4.5 hours at 37° C. The amount of trapped bacteria were calculated as a function of absorbency at 600 nm.
The conjugates and the control peptides were incubated with E. coli (10^6 CFU/mL) prior to the contact with human monocytes-derived macrophages monolayer. After 30 minutes of phagocyte-bacteria encounter, the phagocytes were washed, lysed and the released bacteria allowed to grow for 4.5 hours at 37° C. The amount of trapped bacteria were calculated as a function of absorbency at 600 nm. fMLF by itself (10 μM) enhanced by 2.5 fold the phagocytosis comparing to the control (FIG. 2). […] Tuftsin-PMBN enhanced the phagocytosis by 3 folds comparing to the control.

[2] = test system: Pseudomonas aeruginosa clinical isolates; test: Sensitizing activity for clinical isolates (MIC of antibiotic); type: cell-based; conditions: antibiotic alone
Method: (§1) Experiments for the determining the sensitizing activity of the conjugates were performed similar to those described for PMBN in previous studies (Ofek et al 1994). All conjugates were teted at 20 μg/ml to determine the MIC of the indicated antibiotic. Antibiotics were purchased from Sigma (novobiocin, erythromycin and gentamycin), Bristol (Amikin), Galaxo (Zinacef), and B.R.L (augmentin). Numbers in brackets indicate number of is strains tested.

[3] = test system: E. coli LPS; test: Displacement assay of dansyl-PMBN from LPS; type: binding; conditions: for IC50: inhibits 50% of initial fluorescence of 0.55 μM Dansyl-PMBN bound to E. coli-LPS, read-out: Peptides IC50; for ability to displace Dansyl-PMBN from LPS / affinity to LPS, in words: comparison with PMBN or polymyxin B
Method: To determine the binding of a given peptide to LPS, a displacement assay was performed in which 5 or 10 μl (1×10^−5-1×10^−3 M) of the tested peptide at desired concentrations were added at 5 minutes interval to a pre-equilibrated mixture of LPS solution (2 mL, 3 μg/mL, ˜2×10^−7 M) in HEPES buffer (5 mM, pH 7.2) and dansyl-PMBN (0.55 μM). The fluorescence intensity (excitation wavelength of 340 nm and emission wavelength of 485 nm) was recorded after each time interval. Each experiment was repeated 2-3 times. The percent inhibition of fluorescence intensity was plotted as a function of the peptide concentration from which the concentration required for maximal (Imax) and 50% (IC50) displacement of the dansyl-PMBN from LPS was derived.
Values were calculated as peptide's potency, at a concentration of 50 μg/ml, relatively to PMBN. IC50 values represent peptide concentrations that inhibits 50% of the initial fluorescence of 0.55 μM Dansyl-PMBN bound to E. coli-LPS.

[4] = test system: erythromycin resistant Klebsiella pneumoniae; test: Mice protection assay; type: in vivo; conditions: for Mice survival (Dead/Total): intraperitoneally; for protection of mice, in words: with erythromycin
Method: Sublethal dose of Klebsiella pneumoniae (2×10^5 cfu) were injected intreperitonially to mice. […] After additional 24 hours, the mice were treated once with half dose. Survival was followed daily for 7 days.
Polymyxin octapeptide conjugated with the tripeptide formyl Met-Leu-Phe (fMLF, SEQ ID NO:1) was assayed in combination with erythromycin for the ability to provide protection against Klebsiella pneumoniae infection in an in vivo infection model previously described (Ofek et al., 1994).

[5] = cited from earlier work
[6] = cited from earlier work; remark: listed apart in the source
[7] = test system: Escherichia coli; test: Sensitization assay (fold decrease in MIC of novobiocin); type: cell-based; conditions: sensitization towards novobiocin, peptide 50 μg/ml, relative to PMBN
Method: (§2) Bacterial suspension (10 μL, 1×10^5 CFU) was inoculated into microtiter plate wells containing 100 μL of a serial two-fold dilution (1000-0.5 μg/mL) of novobiocin (Sigma) in ISB. To each well, 10 μL of the test peptide was added to a final concentration of 50 μg/mL. The fold decrease in MIC for novobiocin comparing wells with and without test peptides was calculated and designated as sensitizing activity. The relative sensitizing activity of the test peptide was calculated as percent of the sensitizing activity of 50 μg/mL pPMBN.

[8] = test system: Klebsiella pneumonia; test: as above; type: cell-based; conditions: sensitization towards novobiocin, peptide 50 μg/ml, relative to PMBN
Method: as §2

[9] = test system: clinical isolates of gram-negative bacteria; conditions: previous studies (Ofek et al, 1994); cited from earlier work
[10] = Lam et al., 1986; cited from earlier work
[11] = test system: Klebsiella pneumoniae clinical isolates; test: Sensitizing activity for clinical isolates (MIC of antibiotic); type: cell-based; conditions: antibiotic alone
Method: as §1

[12] = test system: E. coli; test: Minimal inhibitory concentration (MIC) assay; type: cell-based; conditions: compared with PMBN
Method: (§3) Gram-negative bacteria were grown on nutrient agar plates (Difco Laboratories, Detroit, Mich.) and kept at 4° C. An overnight culture in isotonic sensitest broth (ISB, Oxoid) was adjusted to 1×10^5 CFU/mL and inoculated into microtiter plate wells containing each 100 μL of a serial twofold dilution (1000-0.5 μg/mL) of the tested antibiotics in ISB. MIC was defined as the lowest concentration at which there was no visible bacterial growth after incubation for 20 hours at 37° C. The results are reported for 4-8 separate tests that varied by no more than one dilution.

[13] = test system: Klebsiella pneumonia; test: Minimal inhibitory concentration (MIC) assay; type: cell-based; conditions: compared with PMBN
Method: as §3

[14] = test system: Gram-negative bacteria; test: Antimicrobial activity of the peptide per se (MIC assay); type: cell-based; conditions: peptide alone
Method: as §3

[15] = test system: Gram-negative bacteria; test: Sensitization assay, bacterium not specified at the place; type: cell-based; conditions: comparison with PMBN
Method: as §2

formyl-Met-Leu-Phe [fMLF, reference compound]
enhancement of phagocytosis comparing to the control ([1]; 10 μM): 2.5 fold

Gentamycin
Range of MIC [2]: 1000 µg/mL

Polymyxin B
IC50 [3]: 500 nM | Mice survival (Dead/Total) ([4]; 1.5 + 1.5 + 1.5 mg/Kg, no erythromycin): 3/18 | neuromuscular blockade, neurotoxic or nephrotoxic effects ([5]; dogs, 3 mg/Kg body weight intravenously over a long period): all of which were observed | neuromuscular blockade, neurotoxic or nephrotoxic effects ([6]; rats, 3 mg/Kg body weight intravenously over a long period): all of which were observed

Thr-Dab-cyclo[Dab-Dab-dPhe-Leu-Dab-Dab-Thr] [PMBN]
peptides potency (%) Escherichia coli [7]: 100% | peptides potency (%) Klebsiella pneumonia [8]: 100% | IC50 [3]: 4500 nM | protection of mice, in words [4]: partial protection | clinical isolates rendered more susceptible to novobiocin [9]: 53 out of 53 | dose that was not lethal (doses as high as) [10]: 200 mg/Kg body weight | neuromuscular blockade, neurotoxic or nephrotoxic effects ([5]; dog, in vivo, iv, 3 mg/kg): did not cause neuromuscular blockade and neurotoxic or nephrotoxic effects | neuromuscular blockade, neurotoxic or nephrotoxic effects ([6]; rat, in vivo, iv, 3 mg/kg): did not cause neuromuscular blockade and neurotoxic or nephrotoxic effects

CC[C@H]1OC(=O)[C@H](C)[C@@H](O[C@H]2C[C@@](C)(OC)[C@@H](O)[C@H](C)O2)[C@H](C)[C@@H](O[C@@H]2O[C@H](C)C[C@H](N(C)C)[C@H]2O)[C@](C)(O)C[C@@H](C)C(=O)[C@H](C)[C@@H](O)[C@]1(C)O [Erythromycin]
Mice survival (Dead/Total) ([4]; erythromycin 10 mg/Kg alone): 18/18 | protection of mice, in words [4]: all 18 mice who received erythromycin only died | Range of MIC [11]: 100 to 200 µg/mL | Range of MIC [2]: 200 µg/mL

Formyl-Met-Leu-Phe-Thr-Dab-cyclo[Dab-Dab-dPhe-Leu-Dab-Dab-Thr] [fMLF-PMBN]
peptides potency (%) Escherichia coli [7]: 783% | peptides potency (%) Klebsiella pneumonia [8]: 475% | ability to displace Dansyl-PMBN from LPS / affinity to LPS, in words [3]: even lower than PMBN | IC50 [3]: 12000 nM | effect of the added peptide on MIC of PMBN towards E. coli [12]: did not significantly reduce | effect of the added peptide on MIC of PMBN towards Klebsiella pneumonia [13]: did not significantly reduce | antimicrobial activity per se [14]: did not have antimicrobial activity by it self | antimicrobial activity per se ([14]; listed as PMBN-fMLF): no antimicrobial activity per se | enhancement of phagocytosis, in words ([1]; 1 μM): enhanced the phagocytosis of the bacteria | protection of mice, in words [4]: Almost complete protection

CO[C@@H]1[C@@H](OC(N)=O)[C@@H](O)[C@H](Oc2ccc3c(O)c(NC(=O)c4ccc(O)c(CC=C(C)C)c4)c(=O)oc3c2C)OC1(C)C [Novobiocin]
Range of MIC [2]: 62 to 1000 µg/mL

Thr-Lys-Pro-Arg-Thr-Dab-cyclo[Dab-Dab-dPhe-Leu-Dab-Dab-Thr] [Tuftsin-PMBN]
peptides potency (%) Escherichia coli [7]: 863% | peptides potency (%) Klebsiella pneumonia [8]: 268% | ability to displace Dansyl-PMBN from LPS / affinity to LPS, in words [3]: much higher potency then PMBN | IC50 [3]: 700 nM | effect of the added peptide on MIC of PMBN towards E. coli [12]: did not significantly reduce | effect of the added peptide on MIC of PMBN towards Klebsiella pneumonia [13]: did not significantly reduce | antimicrobial activity per se [14]: did not have antimicrobial activity by it self | antimicrobial activity per se ([14]; listed as PMBN-tuftsin): no antimicrobial activity per se | sensitizing activity, in words [15]: increased ability to enhance the permeability of the bacterial outer membrane to novobiocin | enhancement of phagocytosis comparing to the control ([1]; concentration not given): 3 folds
